Here are results for seven compounds from PMC9481312, “In Vitro α-Glycosidase Inhibition and In Silico Studies of Flavonoids Isolated from Pistacia integerrima Stew ex Brandis” (BioMed Research International, 2022).

For the experiment, the target named is T1, α-glycosidase (intestinal α-glycosidase; α-glucosidase).
T1 construct: gene Si; crude native extract: supernatant of sonicated rat intestinal acetone powder in saline (100:1 w/v); not purified, isoenzyme not identified
Kind of experiment: colorimetric p-nitrophenyl release, 96-well plate. The class given is biochemical. The settings on record: 5 mM p-nitrophenyl-α-D-glucopyranoside, 100 mM phosphate, pH 6.8, DMSO, 5 min preincubation; crude rat intestinal extract. From the text: colorimetric p-nitrophenyl release, 96-well plate on α-glycosidase (intestinal α-glycosidase; α-glucosidase)
In general, IC50 refers to the concentration that inhibits the measured activity by half. Read a high IC50 as lower potency. `C[C@H]1O[C@H](O[C@H]2[C@H](O)[C@@H](O)[C@@H](O[C@H]3[C@H](O)[C@@H](O)C(O)O[C@@H]3CO)O[C@@H]2CO)[C@H](O)[C@@H](O)[C@@H]1N[C@H]1C=C(CO)[C@@H](O)[C@H](O)[C@H]1O` (stereo partly shown) [acarbose, reference compound] displayed an IC50 of 841 ± 1.34 µM. As to `COc1cc(O)c2c(c1)O[C@H](c1ccc(O)cc1)CC2=O` [compound 4, sakuranetin], the midpoint of inhibition, the IC50, lay at 287.3 ± 2.09 µM. The compound `COc1cc(-c2oc3cc(O)c(OC)c(O)c3c(=O)c2O)ccc1O` [compound 5, spinacetin] showed a 50% inhibitory concentration (IC50) of 826.4 ± 1.87 µM. `COc1cc(O)c2c(c1)OC(c1ccc(O)cc1)C(O)C2=O` (stereo not shown) [compound 3, 3,5,4′-trihydroxy,7-methoxy-flavanone] displayed an IC50 of 790 ± 2.31 µM. Compound `COc1c(O)cc2oc(-c3ccc(O)c(O)c3)c(O)c(=O)c2c1O` [compound 6, patuletin] registered an IC50 of 743.1 ± 1.32 µM. As for `O=C1C[C@@H](c2ccc(O)cc2)Oc2cc(O)cc(O)c21` [compound 2, naringenin], the figure is 754.2 ± 1.76 µM.

Take `O=C1c2c(O)cc(O)cc2O[C@H](c2ccc(O)cc2)[C@H]1O` [compound 1, 3,5,7,4′-tetrahydroxy-flavanone]: the IC50 was found to be 183.2 ± 1.22 µM.
